The experiment relates to L-type Ca2+ channels in GH3 cells. Nature of the experiment: Inhibition of L-type calcium flux in GH3 cells (Indo-1 fluorescence). The class given is cell-based, rat. How it is done: Measurement of L-type Ca^2+ Channel Blocking Potencies of Compounds in GH3 Cells Using the Fluorescent Ca^2+ Indicator Indo-1
The GH3 rat pituitary cell line was obtained from the American Type Culture Collection (Rockville, Md.). Cells were grown in Ham's F-10 medium with 15% horse serum, 2.5% fetal bovine serum (FBS), and […] (Gibco, Gaithersburg, Md.). Confluent cells were detached using 0.5 mM EDTA and loaded with 5 μM Indo-acetoxymethyl ester (Molecular Probes, Eugene, Oreg.) in 1% bovine serum albumin (BSA) containing assay buffer (10 mM HEPES/Tris pH 7.4 in Hank's Balanced Salt Solution without bicarbonate or phenol red) for 60 minutes at 30° C. Loaded cells were washed twice, resuspended (approx. 10^7 cells/mL) in assay buffer containing 0.5% BSA, and kept on ice until use (<3 hrs). Different concentrations of the test compounds (60 μL in dimethyl sulfoxide) or controls were added to 5.94 mL of assay buffer containing approximately 3×10^6 loaded cells, and the samples were incubated for 10 minutes at 30° C. After incubation, samples were aliquoted into 3 cuvettes, and their fluorescence was measured with a Photon Technology International (PTI, South Brunswick, N.J.) Model RF-F3004 spectrofluorometer thermostatted at 30° C. Excitation was set at 350 nm and dual emissions were recorded at 400 and 490 nm. Basal emission signals were acquired for 20 seconds, followed by the depolarization of cells by the addition of 200 μL of a stimulation solution (1 M KCl, 68 mM CaCl2) to the stirred cuvette. Emission signals were acquired for an additional 50 seconds after depolarization. Ratio of emission signals (F400 nm/F490 nm), which is proportional to intracellular Ca^2+ concentration, was plotted against time, and the difference between the emission ratio 50 seconds after stimulation and its basal value (before stimulation) was determined. Values obtained in this way were considered as measures of depolarization-induced Ca-flux through L-type channels and plotted as a function of drug concentration. IC50 values of test compounds were calculated by fitting a four-parameter logistic function to the data using the least squares method.

These results are taken from US6423689B1, “Peptidyl calcium channel blockers” (Warner-Lambert Company, priority 1997, dated 2002).

Take `CC(C)C[C@H](NC(=O)N1CCCCCC1)C(=O)N[C@@H](Cc1ccc(OCc2ccccc2)cc1)C(=O)OC(C)(C)C` [Example 1]: the IC50 worked out at 4.48 µM. With `CC(C)(C)OC(=O)[C@H](Cc1ccc(OCc2ccccc2)cc1)NC(=O)[C@H](Cc1ccccc1)NC(=O)N1CCCCCC1` [Example 16], the IC50 amounted to 4.3 µM.

The term IC50 denotes the point on the concentration scale where inhibition reaches its midpoint.
